# Reference: publication PMC10247784, “Physiological activation of human and mouse bitter taste receptors by bile acids” (Communications Biology, 2023)
# “And” between values parts separate entries of the source, which are not always exact repeats. Equal entries are not always repeated.
# Biological target: T1, human TAS2R4 (Homo sapiens, UniProt Q9NYW5)
# T1 construct: expressed in transfected cells; host or cells: HEK293T-Gα16gust44
# T1 sequence (Q9NYW5 1-299): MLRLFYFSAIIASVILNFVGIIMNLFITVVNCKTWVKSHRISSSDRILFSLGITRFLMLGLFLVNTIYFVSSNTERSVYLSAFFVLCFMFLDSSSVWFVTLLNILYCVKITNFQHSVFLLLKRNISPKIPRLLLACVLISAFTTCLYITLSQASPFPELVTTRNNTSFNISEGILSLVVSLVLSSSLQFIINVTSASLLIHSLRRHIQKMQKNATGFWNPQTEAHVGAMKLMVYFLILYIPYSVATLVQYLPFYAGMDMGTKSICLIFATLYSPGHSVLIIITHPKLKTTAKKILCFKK
# Assay: Calcium imaging assay (FLIPR), HEK293T-Gα16gust44 cells transfected with human TAS2R4
# Assay type: cell-based
# In short: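 Calcium responses via FLIPR in receptor-transfected HEK293T-Gα16gust44 cells (Fluo-4-AM, 2.5 mM probenecid), after mock-signal subtraction and normalization to baseline and buffer (ΔF/F). Threshold concentration is the lowest dose differing from mock cells at p < 0.01 (Student's t-test), from three biological replicates in duplicate.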
structure (smiles),measurement,setting,value
"C[C@H](CCC(=O)NCCS(=O)(=O)O)[C@H]1CC[C@H]2[C@@H]3[C@H](O)C[C@@H]4C[C@H](O)CC[C@]4(C)[C@H]3C[C@H](O)[C@]12C [Taurocholic Acid, taurocholic acid]",Efficacy = maximal amplitude (ΔF/F),"TAS2R4, bile acids, mean",0.1496
same,"Efficacy (maximal amplitude ΔF/F), individual data points","TAS2R4, bile acids, single replicates, listed as TCA",0.127 and 0.1657 and 0.1561
same,Δ F/F,"TAS2R4, conc. 0,01 mM",0.0134
same,Δ F/F,"TAS2R4, conc. 0,1 mM",0.09538
same,Δ F/F,"TAS2R4, conc. 0,03 mM",0.04001
same,Δ F/F,"TAS2R4, conc. 0,3 mM",0.1496
same,Δ F/F,"TAS2R4, conc. 0,001 mM",0.005857
same,Δ F/F,"TAS2R4, conc. 0,003 mM",0.007034
same,"RLU, fluorescence trace",Time (s) 0,0 RLU
same,"RLU, fluorescence trace",Time (s) 2,-24.6054 RLU
same,"RLU, fluorescence trace",Time (s) 4,12.8274 RLU
same,"RLU, fluorescence trace",Time (s) 6,3.789 RLU
same,"RLU, fluorescence trace",Time (s) 8,-20.122 RLU
same,"RLU, fluorescence trace",Time (s) 12,7.77 RLU
same,"RLU, fluorescence trace",Time (s) 14,-34.8945 RLU
same,"RLU, fluorescence trace",Time (s) 16,-37.677 RLU
same,"RLU, fluorescence trace",Time (s) 18,-48.5281 RLU
same,"RLU, fluorescence trace","Time (s) 18.766 (TCA, TLCA: 18.782)",30.085 RLU
same,"RLU, fluorescence trace","Time (s) 20.781 (TCA, TLCA: 20.782)",9.231 RLU
same,"RLU, fluorescence trace","Time (s) 22.781 (TCA, TLCA: 22.782)",3.151 RLU
same,"RLU, fluorescence trace","Time (s) 24.781 (TCA, TLCA: 24.782)",34.1327 RLU
same,"RLU, fluorescence trace","Time (s) 26.781 (TCA, TLCA: 26.782)",57.6073 RLU
same,"RLU, fluorescence trace","Time (s) 28.781 (TCA, TLCA: 28.782)",122.11 RLU
same,"RLU, fluorescence trace","Time (s) 30.781 (TCA, TLCA: 30.782)",164.035 RLU
same,"RLU, fluorescence trace","Time (s) 32.781 (TCA, TLCA: 32.782)",242.016 RLU
same,"RLU, fluorescence trace","Time (s) 34.781 (TCA, TLCA: 34.782)",272.716 RLU
same,"RLU, fluorescence trace","Time (s) 36.781 (TCA, TLCA: 36.782)",320.809 RLU
same,"RLU, fluorescence trace","Time (s) 38.781 (TCA, TLCA: 38.782)",384.052 RLU
same,"RLU, fluorescence trace","Time (s) 40.781 (TCA, TLCA: 40.782)",404.135 RLU
same,"RLU, fluorescence trace","Time (s) 42.781 (TCA, TLCA: 42.782)",433.94 RLU
same,"RLU, fluorescence trace","Time (s) 44.781 (TCA, TLCA: 44.782)",475.477 RLU
same,"RLU, fluorescence trace","Time (s) 46.781 (TCA, TLCA: 46.782)",493.347 RLU
same,"RLU, fluorescence trace","Time (s) 48.781 (TCA, TLCA: 48.782)",501.503 RLU
same,"RLU, fluorescence trace","Time (s) 50.781 (TCA, TLCA: 50.782)",547.521 RLU
same,"RLU, fluorescence trace","Time (s) 52.781 (TCA, TLCA: 52.782)",553.791 RLU
same,"RLU, fluorescence trace","Time (s) 54.781 (TCA, TLCA: 54.782)",588.235 RLU
same,"RLU, fluorescence trace","Time (s) 56.781 (TCA, TLCA: 56.782)",548.835 RLU
same,"RLU, fluorescence trace","Time (s) 58.781 (TCA, TLCA: 58.782)",588.475 RLU
same,"RLU, fluorescence trace","Time (s) 60.781 (TCA, TLCA: 60.782)",601.608 RLU
same,"RLU, fluorescence trace","Time (s) 62.781 (TCA, TLCA: 62.782)",626.215 RLU
same,"RLU, fluorescence trace","Time (s) 64.781 (TCA, TLCA: 64.782)",626.188 RLU
same,"RLU, fluorescence trace","Time (s) 66.781 (TCA, TLCA: 66.782)",619.641 RLU
same,"RLU, fluorescence trace","Time (s) 68.781 (TCA, TLCA: 68.782)",624.108 RLU
same,"RLU, fluorescence trace","Time (s) 70.781 (TCA, TLCA: 70.782)",638.032 RLU
same,"RLU, fluorescence trace","Time (s) 72.781 (TCA, TLCA: 72.782)",646.123 RLU
same,"RLU, fluorescence trace","Time (s) 74.781 (TCA, TLCA: 74.782)",657.793 RLU
same,"RLU, fluorescence trace","Time (s) 76.781 (TCA, TLCA: 76.782)",666.37 RLU
same,"RLU, fluorescence trace","Time (s) 78.781 (TCA, TLCA: 78.782)",678.287 RLU
same,"RLU, fluorescence trace","Time (s) 80.781 (TCA, TLCA: 80.782)",665.284 RLU
same,"RLU, fluorescence trace","Time (s) 82.781 (TCA, TLCA: 82.782)",655.873 RLU
same,"RLU, fluorescence trace","Time (s) 84.781 (TCA, TLCA: 84.782)",679.941 RLU
same,"RLU, fluorescence trace","Time (s) 86.781 (TCA, TLCA: 86.782)",648.406 RLU
same,"RLU, fluorescence trace","Time (s) 88.781 (TCA, TLCA: 88.782)",644.228 RLU
same,"RLU, fluorescence trace","Time (s) 90.781 (TCA, TLCA: 90.782)",650.88 RLU
same,"RLU, fluorescence trace","Time (s) 92.781 (TCA, TLCA: 92.782)",631.638 RLU
same,"RLU, fluorescence trace","Time (s) 94.781 (TCA, TLCA: 94.782)",665.026 RLU
same,"RLU, fluorescence trace","Time (s) 96.781 (TCA, TLCA: 96.782)",673.234 RLU
same,"RLU, fluorescence trace","Time (s) 98.781 (TCA, TLCA: 98.782)",653.956 RLU
same,"RLU, fluorescence trace","Time (s) 100.781 (TCA, TLCA: 100.782)",661.771 RLU
same,"RLU, fluorescence trace","Time (s) 102.781 (TCA, TLCA: 102.782)",636.296 RLU
same,"RLU, fluorescence trace","Time (s) 104.781 (TCA, TLCA: 104.782)",641.127 RLU
same,"RLU, fluorescence trace","Time (s) 106.781 (TCA, TLCA: 106.782)",615.791 RLU
same,"RLU, fluorescence trace","Time (s) 108.781 (TCA, TLCA: 108.782)",618.091 RLU
same,"RLU, fluorescence trace","Time (s) 110.781 (TCA, TLCA: 110.782)",644.691 RLU
same,"RLU, fluorescence trace","Time (s) 112.781 (TCA, TLCA: 112.782)",640.87 RLU
same,"RLU, fluorescence trace","Time (s) 114.781 (TCA, TLCA: 114.782)",609.041 RLU
same,"RLU, fluorescence trace","Time (s) 116.781 (TCA, TLCA: 116.782)",616.307 RLU
same,"RLU, fluorescence trace","Time (s) 118.781 (TCA, TLCA: 118.782)",584.502 RLU
same,"RLU, fluorescence trace","Time (s) 120.781 (TCA, TLCA: 120.782)",602.866 RLU
same,"RLU, fluorescence trace","Time (s) 122.781 (TCA, TLCA: 122.782)",581.164 RLU
same,"RLU, fluorescence trace","Time (s) 124.781 (TCA, TLCA: 124.782)",578.218 RLU
same,"RLU, fluorescence trace","Time (s) 126.781 (TCA, TLCA: 126.782)",564.916 RLU
same,"RLU, fluorescence trace","Time (s) 128.781 (TCA, TLCA: 128.782)",590.827 RLU
same,"RLU, fluorescence trace","Time (s) 130.781 (TCA, TLCA: 130.782)",571.073 RLU
same,"RLU, fluorescence trace","Time (s) 132.781 (TCA, TLCA: 132.782)",555.387 RLU
same,"RLU, fluorescence trace","Time (s) 134.781 (TCA, TLCA: 134.782)",548.858 RLU
same,"RLU, fluorescence trace","Time (s) 136.781 (TCA, TLCA: 136.782)",535.742 RLU
same,"RLU, fluorescence trace",Time (s) 137.547,524.559 RLU
same,"RLU, fluorescence trace",Time (s) 143.547,525.352 RLU
same,"RLU, fluorescence trace",Time (s) 149.547,486.955 RLU
same,"RLU, fluorescence trace",Time (s) 155.547,493.52 RLU
same,"RLU, fluorescence trace",Time (s) 161.547,446.448 RLU
same,"RLU, fluorescence trace",Time (s) 167.547,435.019 RLU
same,"RLU, fluorescence trace",Time (s) 173.547,386.716 RLU
same,"RLU, fluorescence trace",Time (s) 179.547,393.434 RLU
same,"RLU, fluorescence trace",Time (s) 185.547,372.463 RLU
same,"RLU, fluorescence trace",Time (s) 191.547,357.243 RLU
same,"RLU, fluorescence trace",Time (s) 197.547,314.74 RLU
same,"RLU, fluorescence trace",Time (s) 203.547,318.63 RLU
same,"RLU, fluorescence trace",Time (s) 209.547,306.856 RLU
same,"RLU, fluorescence trace",Time (s) 215.547,260.931 RLU
same,"RLU, fluorescence trace",Time (s) 221.547,241.962 RLU
same,"RLU, fluorescence trace",Time (s) 227.547,290.972 RLU
same,"RLU, fluorescence trace",Time (s) 233.547,269.304 RLU
same,"RLU, fluorescence trace",Time (s) 239.547,267.596 RLU
same,"RLU, fluorescence trace",Time (s) 245.547,219.689 RLU
same,"RLU, fluorescence trace",Time (s) 293.547,189.99 RLU
same,"RLU, fluorescence trace",Time (s) 299.547,175.107 RLU
same,"RLU, fluorescence trace",Time (s) 305.547,192.603 RLU
same,"RLU, fluorescence trace",Time (s) 311.547,188.074 RLU
same,"RLU, fluorescence trace",Time (s) 317.547,199.388 RLU
same,"RLU, fluorescence trace",Time (s) 323.547,170.101 RLU
same,"RLU, fluorescence trace",Time (s) 329.547,196.926 RLU
same,"RLU, fluorescence trace",Time (s) 335.547,162.738 RLU
same,"RLU, fluorescence trace",Time (s) 341.547,164.861 RLU
same,"RLU, fluorescence trace",Time (s) 347.547,156.987 RLU
same,"RLU, fluorescence trace",Time (s) 353.547,175.115 RLU
same,"RLU, fluorescence trace",Time (s) 359.547,151.684 RLU
same,Activation threshold concentration TAS2R4,lowest concentration with significantly increased fluorescence vs empty vector (p < 0.01),100 µM
